Experimental data reported in PubChem BioAssay AID256 (DTP/NCI, 2004).
Where “and” joins values, the source holds several entries; their conditions need not be identical. Equal entries are not always repeated. Toxic doses and inconclusive results are not listed.

System: CD2F1 mice, L1210 leukemia ip, survival T/C
Experiment: NCI In Vivo Anticancer Drug Screen. Data for tumor model L1210 Leukemia (intraperitoneal) in CD2F1 (CDF1) mice
Conditions: higher = longer survival
Procedure, shortened: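 Tumor-bearing mice (transplanted tumor) were split into treated and vehicle control groups, and the measured endpoint of each treated group was divided by that of its vehicle controls.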

For `O=NN(CCCl)C(=O)NCCCl`, the T/C (endpoint: mean survival time, dose: 2.0 mg/kg/injection, schedule: Q01DX009 (ip), vehicle: other) was 177 % of control and 293 % of control, the T/C (endpoint: mean survival time, dose: 3.75 mg/kg/injection, schedule: Q01DX001 (ip), vehicle: distilled water + alcohol) was 115 % of control and the T/C (endpoint: mean survival time, dose: 3.75 mg/kg/injection, schedule: Q01DX001 (ip), vehicle: saline + alcohol) was 114 % of control. The T/C (endpoint: mean survival time, dose: 3.8 mg/kg/injection, schedule: Q01DX001 (ip), vehicle: Klucel (hydroxypropylcellulose) (HPC)) was 150 % of control, the T/C (endpoint: mean survival time, dose: 4.0 mg/kg/injection, schedule: Q01DX001 (ip), vehicle: saline + alcohol) was 113 % of control and 115 % of control and the T/C (endpoint: mean survival time, dose: 4.0 mg/kg/injection, schedule: Q01DX009 (ip), vehicle: other) was 201 % of control and 255 % of control. For the same compound, the T/C (endpoint: mean survival time, dose: 4.0 mg/kg/injection, schedule: Q04DX003 (ip), vehicle: saline + alcohol) was 189 % of control, the T/C (endpoint: mean survival time, dose: 5.0 mg/kg/injection, schedule: Q01DX001 (ip), vehicle: saline) was 113 % of control and the T/C (endpoint: mean survival time, dose: 6.25 mg/kg/injection, schedule: Q01DX001 (ip), vehicle: saline + alcohol) was 119 % of control and 120 % of control. For the same compound, the T/C (endpoint: mean survival time, dose: 7.5 mg/kg/injection, schedule: Q01DX001 (ip), vehicle: Klucel (hydroxypropylcellulose) (HPC)) was 164 % of control, the T/C (endpoint: mean survival time, dose: 7.5 mg/kg/injection, schedule: Q01DX001 (ip), vehicle: distilled water + alcohol) was 123 % of control and the T/C (endpoint: mean survival time, dose: 8.0 mg/kg/injection, schedule: Q01DX009 (ip), vehicle: other) was 183 % of control. For the same compound, the T/C (endpoint: mean survival time, dose: 8.0 mg/kg/injection, schedule: Q04DX003 (ip), vehicle: saline + alcohol) was 230 % of control, the T/C (endpoint: mean survival time, dose: 9.4 mg/kg/injection, schedule: Q01DX001 (ip), vehicle: saline + alcohol) was 156 % of control and 197 % of control and the T/C (endpoint: mean survival time, dose: 10.0 mg/kg/injection, schedule: Q01DX001 (ip), vehicle: DMSO) was 158 % of control. For the same compound, the T/C (endpoint: mean survival time, dose: 12.5 mg/kg/injection, schedule: Q01DX001 (ip), vehicle: saline + alcohol) was 152 % of control and 188 % of control and 212 % of control, the T/C (endpoint: mean survival time, dose: 14.0 mg/kg/injection, schedule: Q01DX001 (ip), vehicle: saline) was 171 % of control and the T/C (endpoint: mean survival time, dose: 14.0 mg/kg/injection, schedule: Q07DX003 (ip), vehicle: saline + alcohol) was 330 % of control. The T/C (endpoint: mean survival time, dose: 14.0 mg/kg/injection, schedule: Q11HX001 (ip), vehicle: saline) was 171 % of control, the T/C (endpoint: mean survival time, dose: 14.22 mg/kg/injection, schedule: Q01DX001 (ip), vehicle: saline + alcohol) was 172 % of control and the T/C (endpoint: mean survival time, dose: 15.0 mg/kg/injection, schedule: Q01DX001 (ip), vehicle: Klucel (hydroxypropylcellulose) (HPC)) was 332 % of control. For the same compound, the T/C (endpoint: mean survival time, dose: 15.0 mg/kg/injection, schedule: Q01DX001 (ip), vehicle: saline) was 172 % of control and 248 % of control, the T/C (endpoint: mean survival time, dose: 16.0 mg/kg/injection, schedule: Q01DX001 (ip), vehicle: other) was 150 % of control and the T/C (endpoint: mean survival time, dose: 16.0 mg/kg/injection, schedule: Q04DX003 (ip), vehicle: saline + alcohol) was 273 % of control. For the same compound, the T/C (endpoint: mean survival time, dose: 18.8 mg/kg/injection, schedule: Q01DX001 (ip), vehicle: saline + alcohol) was 319 % of control, the T/C (endpoint: mean survival time, dose: 20.0 mg/kg/injection, schedule: Q01DX001 (ip), vehicle: DMSO) was 270 % of control and the T/C (endpoint: mean survival time, dose: 20.0 mg/kg/injection, schedule: Q01DX001 (ip), vehicle: Klucel (hydroxypropylcellulose) (HPC)) was 300 % of control. For the same compound, the T/C (endpoint: mean survival time, dose: 20.0 mg/kg/injection, schedule: Q01DX001 (ip), vehicle: other) was 169 % of control, the T/C (endpoint: mean survival time, dose: 20.0 mg/kg/injection, schedule: Q11HX001 (ip), vehicle: saline) was 198 % of control and the T/C (endpoint: mean survival time, dose: 21.3 mg/kg/injection, schedule: Q01DX001 (ip), vehicle: saline + alcohol) was 248 % of control. The T/C (endpoint: mean survival time, dose: 25.0 mg/kg/injection, schedule: Q01DX001 (ip), vehicle: saline + alcohol) was 335 % of control, the T/C (endpoint: mean survival time, dose: 30.0 mg/kg/injection, schedule: Q01DX001 (ip), vehicle: distilled water + alcohol) was 196 % of control and the T/C (endpoint: mean survival time, dose: 30.0 mg/kg/injection, schedule: Q01DX001 (ip), vehicle: saline) was 232 % of control. The T/C (endpoint: mean survival time, dose: 30.0 mg/kg/injection, schedule: Q11HX001 (ip), vehicle: saline) was 232 % of control, the T/C (endpoint: mean survival time, dose: 32.0 mg/kg/injection, schedule: Q01DX001 (ip), vehicle: other) was 246 % of control and the T/C (endpoint: mean survival time, dose: 32.0 mg/kg/injection, schedule: Q01DX001 (ip), vehicle: saline) was 287 % of control. For the same compound, the T/C (endpoint: mean survival time, dose: 33.0 mg/kg/injection, schedule: Q07DX003 (ip), vehicle: saline + alcohol) was 323 % of control, the T/C (endpoint: mean survival time, dose: 40.0 mg/kg/injection, schedule: Q01DX001 (ip), vehicle: Klucel (hydroxypropylcellulose) (HPC)) was 311 % of control and the T/C (endpoint: mean survival time, dose: 40.0 mg/kg/injection, schedule: Q01DX001 (ip), vehicle: other) was 311 % of control. The T/C (endpoint: mean survival time, dose: 45.0 mg/kg/injection, schedule: Q01DX001 (ip), vehicle: saline) was 179 % of control, the T/C (endpoint: mean survival time, dose: 45.0 mg/kg/injection, schedule: Q11HX001 (ip), vehicle: saline) was 180 % of control and the T/C (endpoint: mean survival time, dose: 50.0 mg/kg/injection, schedule: Q01DX001 (ip), vehicle: saline + alcohol) was 291 % of control. For the same compound, the T/C (endpoint: mean survival time, dose: 56.25 mg/kg/injection, schedule: Q01DX001 (ip), vehicle: saline + alcohol) was 252 % of control, the T/C (endpoint: mean survival time, dose: 60.0 mg/kg/injection, schedule: Q01DX001 (ip), vehicle: distilled water + alcohol) was 222 % of control and the T/C (endpoint: mean survival time, dose: 80.0 mg/kg/injection, schedule: Q01DX001 (ip), vehicle: saline + alcohol) was 168 % of control. The T/C (endpoint: median survival time, dose: 0.9 mg/kg/injection, schedule: Q01DX009 (ip), vehicle: saline + alcohol) was 116 % of control and 122 % of control, the T/C (endpoint: median survival time, dose: 1.75 mg/kg/injection, schedule: Q01DX009 (ip), vehicle: saline + alcohol) was 156 % of control and the T/C (endpoint: median survival time, dose: 1.8 mg/kg/injection, schedule: Q01DX009 (ip), vehicle: saline + alcohol) was 169 % of control. The T/C (endpoint: median survival time, dose: 3.0 mg/kg/injection, schedule: Q01DX009 (ip), vehicle: saline + alcohol) was 172 % of control, the T/C (endpoint: median survival time, dose: 3.5 mg/kg/injection, schedule: Q01DX009 (ip), vehicle: saline + alcohol) was 182 % of control and 241 % of control and 246 % of control and the T/C (endpoint: median survival time, dose: 5.0 mg/kg/injection, schedule: Q04DX003 (ip), vehicle: saline + alcohol) was 152 % of control. For the same compound, the T/C (endpoint: median survival time, dose: 6.0 mg/kg/injection, schedule: Q01DX009 (ip), vehicle: saline + alcohol) was 256 % of control, the T/C (endpoint: median survival time, dose: 7.0 mg/kg/injection, schedule: Q01DX009 (ip), vehicle: saline + alcohol) was 218 % of control and 259 % of control and the T/C (endpoint: median survival time, dose: 8.0 mg/kg/injection, schedule: Q01DX001 (ip), vehicle: saline + alcohol) was 153 % of control. For the same compound, the T/C (endpoint: median survival time, dose: 10.0 mg/kg/injection, schedule: Q01DX001 (ip), vehicle: Klucel (hydroxypropylcellulose) (HPC)) was 171 % of control and 197 % of control, the T/C (endpoint: median survival time, dose: 10.0 mg/kg/injection, schedule: Q01DX001 (ip), vehicle: saline + alcohol) was 156 % of control and 178 % of control and the T/C (endpoint: median survival time, dose: 10.0 mg/kg/injection, schedule: Q01DX009 (ip), vehicle: saline) was 176 % of control. The T/C (endpoint: median survival time, dose: 10.0 mg/kg/injection, schedule: Q03DX003 (ip), vehicle: DMSO) was 294 % of control, the T/C (endpoint: median survival time, dose: 10.0 mg/kg/injection, schedule: Q04DX003 (ip), vehicle: saline + alcohol) was 188 % of control and the T/C (endpoint: median survival time, dose: 11.5 mg/kg/injection, schedule: Q01DX001 (ip), vehicle: saline + alcohol) was 165 % of control. The T/C (endpoint: median survival time, dose: 12.0 mg/kg/injection, schedule: Q01DX009 (ip), vehicle: saline + alcohol) was 168 % of control, the T/C (endpoint: median survival time, dose: 14.0 mg/kg/injection, schedule: Q01DX009 (ip), vehicle: saline + alcohol) was 158 % of control and 162 % of control and 185 % of control and the T/C (endpoint: median survival time, dose: 14.0 mg/kg/injection, schedule: Q07DX003 (ip), vehicle: saline + alcohol) was 273 % of control. For the same compound, the T/C (endpoint: median survival time, dose: 14.4 mg/kg/injection, schedule: Q01DX001 (ip), vehicle: saline + alcohol) was 152 % of control and 157 % of control, the T/C (endpoint: median survival time, dose: 15.0 mg/kg/injection, schedule: Q01DX009 (ip), vehicle: saline) was 164 % of control and the T/C (endpoint: median survival time, dose: 16.0 mg/kg/injection, schedule: Q01DX001 (ip), vehicle: saline + alcohol) was 255 % of control. The T/C (endpoint: median survival time, dose: 19.2 mg/kg/injection, schedule: Q01DX001 (ip), vehicle: saline + alcohol) was 192 % of control, the T/C (endpoint: median survival time, dose: 20.0 mg/kg/injection, schedule: Q01DX001 (ip), vehicle: Klucel (hydroxypropylcellulose) (HPC)) was 226 % of control and 234 % of control and the T/C (endpoint: median survival time, dose: 24.0 mg/kg/injection, schedule: Q01DX001 (ip), vehicle: saline + alcohol) was 152 % of control and 186 % of control. The T/C (endpoint: median survival time, dose: 24.0 mg/kg/injection, schedule: Q01DX009 (ip), vehicle: saline + alcohol) was 124 % of control, the T/C (endpoint: median survival time, dose: 32.0 mg/kg/injection, schedule: Q01DX001 (ip), vehicle: saline + alcohol) was 186 % of control and the T/C (endpoint: median survival time, dose: 40.0 mg/kg/injection, schedule: Q01DX001 (ip), vehicle: Klucel (hydroxypropylcellulose) (HPC)) was 343 % of control. For the same compound, the T/C (endpoint: median survival time, dose: 40.0 mg/kg/injection, schedule: Q04DX003 (ip), vehicle: saline + alcohol) was 164 % of control, the T/C (endpoint: median survival time, dose: 66.7 mg/kg/injection, schedule: Q01DX001 (ip), vehicle: saline + alcohol) was 179 % of control and 184 % of control and the T/C (endpoint: median survival time, dose: 80.0 mg/kg/injection, schedule: Q01DX001 (ip), vehicle: Klucel (hydroxypropylcellulose) (HPC)) was 117 % of control. For the same compound, the T/C (endpoint: median survival time, dose: 80.0 mg/kg/injection, schedule: Q01DX001 (ip), vehicle: saline) was 123 % of control and the T/C (endpoint: median survival time, dose: 160.0 mg/kg/injection, schedule: Q01DX001 (ip), vehicle: Klucel (hydroxypropylcellulose) (HPC)) was 168 % of control.
